According to patent US11913944B2, “Photoaffinity probes” (Promega Corporation, priority 2019, dated 2024):

Key:
STAT5 reporter = STAT5 reporter expression in K-562 cells; type: cell-based; conditions: Homo sapiens, K562; K-562 cells transiently expressing a STAT5 reporter, 24 hours; read-out: IC50, inhibited expression of a STAT5 reporter
Experimental: Dasatinib is a broad kinase inhibitor targeting the BCR-ABL oncogenic pathway, thereby reducing the downstream activation of STAT5. K-562 cells transiently expressing a STAT5 reporter (2×10^5 cells/mL) were treated with serial dilution of dasatinib or a derivative having cleavable chloroalkane tag (+/−a PRG) for 24 hours and then tested for expression of the STAT5 reporter.

[1] = Influence of UV irradiation on fluorescence intensity of SAHA-fluorophore conjugates; type: physicochemical; conditions: UV irradiated 0-30 minutes; HEK293T cells expressing HDAC6-NANOLUC fusion
Experimental: During development of the BRET approach described herein for estimating crosslinking efficiency, experiments were conducted to determine the influence of UV irradiation on the bioluminescent intensity of the energy donor NANOLUC, and the fluorescence intensity of three fluorophores that can be used as energy acceptors (FIGS. 12-15). The model system for these experiments (FIG. 13) was the interaction between HDAC6 fused to NANOLUC and SAHA (vorinostat), which binds to HDAC6 and was conjugated to one of three fluorophores NCT, TAMRA, and BODIPY576 (FIG. 12). In these experiments HEK293T cells transiently expressing HAD6-NANOLUC fusion were treated for 2 hours with serial dilution of SAHA-fluorophore conjugate, then UV irradiated for 0-30 minutes and subsequently treated with NANOGLO detection reagent. […] Thus, NANOLUC and NCT were chosen as a BRET donor and acceptor pair for the assays estimating photocrosslinking efficiency.

Compound | IC50 (STAT5 reporter) [nM] | Fluorescence intensity under UV irradiation [1]
Cc1nc(Nc2ncc(C(=O)Nc3c(C)cccc3Cl)s2)cc(N2CCN(CCO)CC2)n1 [dasatinib] | 0.4 | 
CN(C)c1ccc2c(-c3cc(C(=O)NCc4ccc(NC(=O)CCCCCCC(=O)NO)cc4)ccc3C(=O)O)c3ccc(=[N+](C)C)cc-3oc2c1 [SAHA-TMR] |  | decreased the fluorescence intensity
O=C(CCCCCCC(=O)Nc1ccc(CNC(=O)c2ccc(C(=O)O)c(C3=c4cc5c6c(c4Oc4c3cc3c7c4CCCN7CCCC3)CCC[N+]=6CCCC5)c2)cc1)NO [SAHA-NCT] |  | not significantly affected
O=C(CCCCCCC(=O)Nc1ccc(CNC(=O)CCc2ccc3n2[B-](F)(F)[N+]2=C(c4ccc[nH]4)C=CC2=C3)cc1)NO [SAHA-BODIPY576] |  | decreased the fluorescence intensity
